Assay results reported in publication PMC11542720, “Modelling of chromatographic and electrophoretic behaviour of imidazoline and alpha adrenergic receptors ligands under different acid-base conditions” (ADMET & DMPK, 2024).
Several values for one entry are separate records, joined by “and”; a condition that tells them apart may be missing. Equal values may be shown once. Where a name gives a salt, the structure may show the parent alone.

Assays:
[1] = RP-HPLC retention on XTerra RP18, methanol/buffer; extrapolated retention factor log kw and slope S; type: physicochemical; details: for log kw: intercept, extrapolated to 100 % buffer, methanol/buffer, 25 °C; for S (slope): slope of log k vs methanol volume fraction
Method: All measurements were performed at 25°C with a constant flow rate of 0.8 mL min^-1 and UV detection in the range of 200-280 nm. The injection volume was 20 μL. […] The retention factor k was calculated for each mobile phase composition according to Equation (1):
where tr is the retention time of the tested compound and t0 is the dead volume measured with KNO3 as a non-retentive marker. The values corresponding to 100 % of the buffered eluent (log kw) were determined by extrapolation according to Equation (2):
where log kw is the intercept, S is the slope of the regression line, and φ is the volume fraction of the organic modifier in the mobile phase.
The retention behaviour in HPLC system was monitored by calculating extrapolated retention factors log kw corresponding to pure buffer as mobile phase.

[2] = Capillary electrophoresis, effective electrophoretic mobility (acetone as EOF marker); type: physicochemical; details: for µeff4.4 / μeff4.4 (effective electrophoretic mobility): pH 4.4; for µeff4.4 / µeff7.4 / µeff9.1: I = 25 mmol/L, 11 kV, 25 °C, three replicates; for µeff7.4 / μeff7.4 (effective electrophoretic mobility, text): pH 7.4; for µeff9.1 / μeff9.1 (effective electrophoretic mobility): pH 9.1
Method: All experiments were performed using the SpectraPhoresis 500-capillary electrophoresis system (Spectra Physics Analytical, USA) with UV detector. Data were recorded and analyzed using ChromQuest software version 4.0 (Thermo Finnigan, USA).
The separations were performed with an uncoated fused capillary (total length 31.5 cm, 50 μm id, effective length 24 cm, Polymicro Technologies, USA) applying a voltage of 11 kV and at 25 °C. The samples were injected hydrodynamically and detection was performed in the 200-280 nm range. The new capillary was rinsed stepwise with 0.1 M NaOH (15 min), water (10 min) and a running buffer (10 min). Finally, a 10 min high voltage was applied through the background electrolyte-filled capillary to equalize the inner surface, stabilize the electroosmotic flow and ensure good reproducibility of injections from run to run. […] Between runs, the capillary was rinsed with the background electrolyte for 1 minute.
where Lt is the total length of the capillary (cm), Leff is the effective length of the capillary (cm), U is the applied voltage (V), tm is the migration time of the analyte (s) and teof is the migration time of the electroneutral EOF marker acetone (s). The calculated μeff values (μeff4.4, μeff7.4 and μeff9.1) were used as dependent variables in QSMR analysis.

Row | SMILES | log kw ([1]; pH 4.4) | S (slope) ([1]; pH 4.4) | log kw ([1]; pH 7.4) | S (slope) ([1]; pH 7.4) | log kw ([1]; pH 9.1) | S (slope) ([1]; pH 9.1) | µeff4.4 [2] | µeff7.4 [2] | µeff9.1 [2] | log kw ([1]; pH 4.4, listed as carvedilol) | μeff4.4 (effective electrophoretic mobility) [2] | μeff7.4 (effective electrophoretic mobility, text) [2] | μeff7.4 (effective electrophoretic mobility, text) ([2]; listed as clopamide) | μeff9.1 (effective electrophoretic mobility) [2]
1 | N=C(N)NC(=O)c1nc(Cl)c(N)nc1N [Amiloride, Amiloride hydrochloride] | 1.11 ± 0.04 | -3.31 ± 0.09 | 1.05 ± 0.04 | -3.23 ± 0.12 | 0.98 ± 0.04 | -2.74 ± 0.11 | 25.939 ± 0.080 10^-5 cm^2 V^-1 s^-1 | 21.786 ± 0.082 10^-5 cm^2 V^-1 s^-1 | 6.416 ± 0.022 10^-5 cm^2 V^-1 s^-1 |  |  |  |  | 
2 | COc1ccccc1OCCNCC(O)COc1cccc2[nH]c3ccccc3c12 (centres unmarked) [Carvedilol, carvedilol] | 3.75 ± 0.04 | -5.84 ± 0.07 | 4.15 ± 0.08 | -5.44 ± 0.13 | 4.21 ± 0.10 | -5.56 ± 0.18 | 18.061 ± 0.029 10^-5 cm^2 V^-1 s^-1 | 13.057 ± 0.052 10^-5 cm^2 V^-1 s^-1 | 1.693 ± 0.071 10^-5 cm^2 V^-1 s^-1 | 3.75 |  |  |  | 
3 | Clc1cccc(Cl)c1N=C1NCCN1 [Clonidine, Clonidine hydrochloride] | 0.82 ± 0.02 | -2.74 ± 0.05 | 0.98 ± 0.01 | -1.82 ± 0.02 | 1.47 ± 0.01 | -2.71 ± 0.03 | 25.952 ± 0.084 10^-5 cm^2 V^-1 s^-1 | 19.607 ± 0.132 10^-5 cm^2 V^-1 s^-1 | 2.575 ± 0.060 10^-5 cm^2 V^-1 s^-1 |  |  |  |  | 
4 | C[C@@H]1CCC[C@H](C)N1NC(=O)c1ccc(Cl)c(S(N)(=O)=O)c1 [Clopamide, clopamide] | 2.00 ± 0.02 | -3.61 ± 0.04 | 1.99 ± 0.03 | -3.59 ± 0.08 | 1.87 ± 0.01 | -3.34 ± 0.02 | 0.000 ± 0.000 10^-5 cm^2 V^-1 s^-1 | 0.000 ± 0.000 10^-5 cm^2 V^-1 s^-1 | -9.640 ± 0.053 10^-5 cm^2 V^-1 s^-1 |  | 0 10^-5 cm^2 / V s and 0.000 ± 0.000 10^-5 cm^2 / V s | zero | 0 10^-5 cm^2 / V s | negative values of effective mobility
5 | CN[C@@H](C)[C@H](O)c1ccccc1 [Ephedrine, ephedrine hydrochloride] | 0.56 ± 0.02 | -2.41 ± 0.08 | 0.57± 0.02 | -2.49 ± 0.09 | 1.01 ± 0.02 | -2.52 ± 0.05 | 25.942 ± 0.032 10^-5 cm^2 V^-1 s^-1 | 23.199 ± 0.103 10^-5 cm^2 V^-1 s^-1 | 18.047 ± 0.070 10^-5 cm^2 V^-1 s^-1 |  |  |  |  | 
6 | N=C(N)NC(=O)Cc1c(Cl)cccc1Cl [Guanfacine, guanfacine hydrochloride] | 1.73 ± 0.01 | -3.47 ± 0.03 | 1.92 ± 0.12 | -3.21 ± 0.03 | 2.00 ± 0.00 | -3.35 ± 0.01 | 24.242± 0.002 10^-5 cm^2 V^-1 s^-1 | 5.083 ± 0.025 10^-5 cm^2 V^-1 s^-1 | 0.000 ± 0.000 10^-5 cm^2 V^-1 s^-1 |  |  | 5.083 ± 0.025 10^-5 cm^2 / V s |  | zero
7 | CC1Cc2ccccc2N1NC(=O)c1ccc(Cl)c(S(N)(=O)=O)c1 (centres unmarked) [Indapamide, indapamide] | 2.69 ± 0.02 | -4.16 ± 0.06 | 2.55 ± 0.02 | -4.19 ± 0.04 | 2.35 ± 0.03 | -3.78 ± 0.06 | 0.000 ± 0.000 10^-5 cm^2 V^-1 s^-1 | 0.000 ± 0.000 10^-5 cm^2 V^-1 s^-1 | -10.382 ± 0.053 10^-5 cm^2 V^-1 s^-1 |  | 0 10^-5 cm^2 / V s and 0.000 ± 0.000 10^-5 cm^2 / V s |  |  | negative values of effective mobility
8 | Cc1cc2c(s1)Nc1ccccc1N=C2N1CCN(C)CC1 [Olanzapine, olanzapine] | 1.64 ± 0.04 | -3.37 ± 0.11 | 3.23 ± 0.07 | -4.37 ± 0.12 | 3.28 ± 0.08 | -4.46 ± 0.14 | 33.632 ± 0.036 10^-5 cm^2 V^-1 s^-1 | 10.679 ± 0.039 10^-5 cm^2 V^-1 s^-1 | 1.241 ± 0.029 10^-5 cm^2 V^-1 s^-1 |  | 33.632 ± 0.036 10^-5 cm^2 / V s |  |  | 
9 | CN[C@@H](C)[C@@H](O)c1ccccc1 [Pseudoephedrine, pseudoephedrine hydrochloride] | 0.60 ± 0.03 | -2.60 ± 0.10 | 0.61 ± 0.02 | -2.67 ± 0.12 | 1.10 ± 0.02 | -2.72 ± 0.07 | 26.633 ± 0.043 10^-5 cm^2 V^-1 s^-1 | 23.691 ± 0,051 10^-5 cm^2 V^-1 s^-1 | 9.299 ± 0.058 10^-5 cm^2 V^-1 s^-1 |  |  |  |  | 
10 | C1COC(NC(C2CC2)C2CC2)=N1 [Rilmenidine, rilmenidine hemifumarate] | 0.92 ± 0.03 | -2.88 ± 0.09 | 0.90 ± 0.03 | -2.35 ± 0.11 | 1.48 ± 0.02 | -2.96 ± 0.06 | 25.350 ± 0.121 10^-5 cm^2 V^-1 s^-1 | 22.551 ± 0.029 10^-5 cm^2 V^-1 s^-1 | 14.065 ± 0.214 10^-5 cm^2 V^-1 s^-1 |  |  |  |  | 
11 | CCOc1ccccc1OCCN[C@H](C)Cc1ccc(OC)c(S(N)(=O)=O)c1 [Tamsulosin, tamsulosin hydrochloride] | 2.22 ± 0.05 | -4.73 ± 0.13 | 2.75 ± 0.04 | -4.51 ± 0.10 | 3.06 ± 0.09 | -4.97 ± 0.20 | 17.310 ± 0.002 10^-5 cm^2 V^-1 s^-1 | 14.444 ± 0.058 10^-5 cm^2 V^-1 s^-1 | 2.472 ± 0.133 10^-5 cm^2 V^-1 s^-1 |  |  |  |  | 
12 | Clc1ccc2nsnc2c1NC1=NCCN1 [Tizanidine, tizanidine hydrochloride] | 0.74 ± 0.02 | -2.65 ± 0.06 | 1.12 ± 0.01 | -2.23 ± 0.03 | 1.34 ± 0.01 | -2.63 ± 0.04 | 24.770 ± 0.035 10^-5 cm^2 V^-1 s^-1 | 12.077 ± 0.042 10^-5 cm^2 V^-1 s^-1 | 0.000 ± 0.000 10^-5 cm^2 V^-1 s^-1 |  |  |  |  | zero
13 | Cc1cc(C(C)(C)C)cc(C)c1CC1=NCCN1 [Xylometazoline, xylometazoline hydrochloride] | 2.61 ± 0.00 | -4.22 ± 0.01 | 2.59 ± 0.02 | -4.14 ± 0.04 | 2.79 ± 0.08 | -4.17 ± 0.16 | 21.032 ± 0.019 10^-5 cm^2 V^-1 s^-1 | 19.943 ± 0.006 10^-5 cm^2 V^-1 s^-1 | 20.627 ± 0.015 10^-5 cm^2 V^-1 s^-1 |  |  |  |  | 
